According to patent publication US20260146035A1, “FUSED BICYCLIC COMPOUNDS AND THEIR USE AS MER AND AXL INHIBITORS” (DONG-A ST CO., LTD., priority 2022, published 2026):

Tests used:
human MER (528-end) = biological target: T1, human MER (528-end) (Homo sapiens, UniProt Q12866); experiment: HTRF kinase activity biochemical assay, MER; settings: 10 μM ATP, 30 minutes pre-incubation; read-out: HTRF MERTK IC50
T1 construct: human MER (528-end); purchased Camnabio, Japan
T1 sequence (Q12866 528-999 limits assumed): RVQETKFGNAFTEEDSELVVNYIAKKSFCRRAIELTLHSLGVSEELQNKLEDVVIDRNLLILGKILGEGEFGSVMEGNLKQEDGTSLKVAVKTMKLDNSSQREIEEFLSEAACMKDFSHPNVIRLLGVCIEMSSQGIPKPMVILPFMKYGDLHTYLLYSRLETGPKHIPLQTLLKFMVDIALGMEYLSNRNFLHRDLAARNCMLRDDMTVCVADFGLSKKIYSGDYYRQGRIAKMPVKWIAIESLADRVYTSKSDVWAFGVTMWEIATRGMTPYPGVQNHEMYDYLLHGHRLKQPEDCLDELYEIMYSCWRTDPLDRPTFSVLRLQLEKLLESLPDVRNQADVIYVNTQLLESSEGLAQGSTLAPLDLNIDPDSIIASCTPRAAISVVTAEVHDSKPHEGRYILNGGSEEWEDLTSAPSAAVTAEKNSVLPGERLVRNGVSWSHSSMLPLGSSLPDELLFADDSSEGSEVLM

human AXL (473-end) = biological target: T2, human AXL (473-end) (Homo sapiens, UniProt P30530); experiment: HTRF kinase activity biochemical assay, AXL; settings: 10 μM ATP, 30 minutes pre-incubation
T2 construct: human AXL (473-end); purchased SignalChem, Canada
T2 sequence (P30530 473-894 limits assumed): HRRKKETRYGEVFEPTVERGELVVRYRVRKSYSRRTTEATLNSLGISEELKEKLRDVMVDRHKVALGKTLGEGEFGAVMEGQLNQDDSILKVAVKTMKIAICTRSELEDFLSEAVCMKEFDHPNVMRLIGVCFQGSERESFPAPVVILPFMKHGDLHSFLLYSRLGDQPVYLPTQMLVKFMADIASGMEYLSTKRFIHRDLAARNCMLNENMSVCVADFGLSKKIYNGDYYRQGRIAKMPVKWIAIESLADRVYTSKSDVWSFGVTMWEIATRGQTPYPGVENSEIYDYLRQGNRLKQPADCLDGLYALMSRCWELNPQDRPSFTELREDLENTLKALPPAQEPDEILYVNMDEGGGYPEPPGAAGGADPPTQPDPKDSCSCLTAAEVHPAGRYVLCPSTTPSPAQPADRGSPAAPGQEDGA

human TYRO3 (455-end) = biological target: T3, human TYRO3 (455-end) (Homo sapiens, UniProt Q06418); experiment: HTRF kinase activity biochemical assay, TYRO3; settings: 10 μM ATP, 30 minutes pre-incubation; read-out: HTRF TYRO IC50
T3 construct: TYRO3 (455-end); purchased SignalChem, Canada
T3 sequence (Q06418 455-890 limits assumed): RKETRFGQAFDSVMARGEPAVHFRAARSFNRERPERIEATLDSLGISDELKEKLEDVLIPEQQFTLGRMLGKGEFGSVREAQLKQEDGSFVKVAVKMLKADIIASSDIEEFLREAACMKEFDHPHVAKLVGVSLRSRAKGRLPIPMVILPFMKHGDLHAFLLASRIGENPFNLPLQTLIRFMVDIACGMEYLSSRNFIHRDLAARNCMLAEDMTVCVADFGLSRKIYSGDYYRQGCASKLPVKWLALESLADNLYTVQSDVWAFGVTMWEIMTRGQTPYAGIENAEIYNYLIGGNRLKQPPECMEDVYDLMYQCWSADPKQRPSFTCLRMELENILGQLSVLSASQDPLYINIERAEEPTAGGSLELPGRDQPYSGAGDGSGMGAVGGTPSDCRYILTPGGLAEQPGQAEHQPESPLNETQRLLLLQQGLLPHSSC

With Cc1csc(-c2cnc(N)c(C(=O)N[C@H]3CCC[C@@H]3OCc3ccc(-c4ccc5c(c4)CC[C@@H]5N4CCN(CCO)CC4)cc3)c2)n1 [Example 181, 2-amino-N-{(1S,2S)-2-[(4-{(1S)-1-[4-(2-hydroxyethyl)piperazin-1-yl]-2,3-dihydro-1H-inden-5-yl}phenyl)methoxy]cyclopentyl}-5-(4-methyl-1,3-thiazol-2-yl)pyridine-3-carboxamide] the IC50 (human MER (528-end)) was < 10 nM, the IC50 (human AXL (473-end)) was < 10 nM and the IC50 (human TYRO3 (455-end)) was 10 to 100 nM.

With Nc1ncc(C(F)(F)F)cc1C(=O)N[C@H]1COC[C@@H]1OCc1ccc(-c2ccc3c(ccn3C3CCN(CCO)CC3)c2)cc1 [Example 24, 2-amino-N-{(3S,4R)-4-[(4-{1-[1-(2-hydroxyethyl)piperidin-4-yl]-1H-indol-5-yl}phenyl)methoxy]oxolan-3-yl}-5-(trifluoromethyl)pyridine-3-carboxamide] the IC50 (human MER (528-end)) was 10 to 100 nM, the IC50 (human AXL (473-end)) was 100 to 1000 nM and the IC50 (human TYRO3 (455-end)) was > 1000 nM.

With CN1CCC(N2CC(C)(C)c3cc(-c4ccc(CO[C@H]5CCC[C@@H]5NC(=O)c5cc(-c6cnn(C)c6)cnc5N)cc4)ccc32)CC1 [Example 12, 2-amino-N-[(1S,2S)-2-({4-[3,3-dimethyl-1-(1-methylpiperidin-4-yl)-2,3-dihydro-1H-indol-5-yl]phenyl}methoxy)cyclopentyl]-5-(1-methyl-1H-pyrazol-4-yl)pyridine-3-carboxamide] the IC50 (human MER (528-end)) was < 10 nM, the IC50 (human AXL (473-end)) was < 10 nM and the IC50 (human TYRO3 (455-end)) was 10 to 100 nM.

With Cn1ccc(-c2cnc(N)c(C(=O)N[C@H]3CCC[C@@H]3OCc3ccc(-c4ccc5c(c4)CC[C@@H]5N4CCN(CC(O)CO)CC4)cc3)c2)cc1=O (stereo partly drawn) [Example 99, 6-amino-N-{(1S,2S)-2-[(4-{(1S)-1-[4-(2,3-dihydroxypropyl)piperazin-1-yl]-2,3-dihydro-1H-inden-5-yl}phenyl)methoxy]cyclopentyl}-1′-methyl-2′-oxo-1′,2′-dihydro[3,4′-bipyridine]-5-carboxamide] the IC50 (human MER (528-end)) was < 10 nM, the IC50 (human AXL (473-end)) was < 10 nM and the IC50 (human TYRO3 (455-end)) was 100 to 1000 nM.

In the case of Nc1ncc(-c2cncc(F)c2)cc1C(=O)N[C@H]1CCC[C@@H]1OCc1ccc(-c2ccc3c(c2)CCCC3N2CCN(CCO)CC2)cc1 (stereo partly drawn) [Example 123, 6-amino-5′-fluoro-N-{(1S,2S)-2-[(4-{5-[4-(2-hydroxyethyl)piperazin-1-yl]-5,6,7,8-tetrahydronaphthalen-2-yl}phenyl)methoxy]cyclopentyl}[3,3′-bipyridine]-5-carboxamide], the IC50 (human MER (528-end)) is reported as < 10 nM, the IC50 (human AXL (473-end)) is reported as < 10 nM and the IC50 (human TYRO3 (455-end)) is reported as 10 to 100 nM.

In the case of Cn1cc(-c2cnc(N)c(C(=O)N[C@H]3CCC[C@@H]3OCc3ccc(-c4ccc5c(c4)C(C)(C)CCN5C4CCN(CCO)CC4)cc3)c2)cn1 [Example 114, 2-amino-N-{(1S,2S)-2-[(4-{1-[1-(2-hydroxyethyl)piperidin-4-yl]-4,4-dimethyl-1,2,3,4-tetrahydroquinolin-6-yl}phenyl)methoxy]cyclopentyl}-5-(1-methyl-1H-pyrazol-4-yl)pyridine-3-carboxamide], the IC50 (human MER (528-end)) is reported as < 10 nM, the IC50 (human AXL (473-end)) is reported as < 10 nM and the IC50 (human TYRO3 (455-end)) is reported as 10 to 100 nM.

In the case of Nc1ncc(-c2ccc(F)nc2)cc1C(=O)N[C@H]1CCC[C@@H]1OCc1ccc(-c2ccc3c(c2)CCCC3N2CCN(CCO)CC2)cc1 (stereo partly drawn) [Example 106, 6-amino-6′-fluoro-N-{(1S,2S)-2-[(4-{5-[4-(2-hydroxyethyl)piperazin-1-yl]-5,6,7,8-tetrahydronaphthalen-2-yl}phenyl)methoxy]cyclopentyl}[3,3′-bipyridine]-5-carboxamide], the IC50 (human MER (528-end)) is reported as < 10 nM, the IC50 (human AXL (473-end)) is reported as < 10 nM and the IC50 (human TYRO3 (455-end)) is reported as 10 to 100 nM.

In the case of Nc1ncc(-c2ccns2)cc1C(=O)N[C@H]1CCC[C@@H]1OCc1ccc(-c2ccc3c(c2)CC[C@@H]3N2CCN(CCO)CC2)cc1 [Example 174, 2-amino-N-{(1S,2S)-2-[(4-{(1S)-1-[4-(2-hydroxyethyl)piperazin-1-yl]-2,3-dihydro-1H-inden-5-yl}phenyl)methoxy]cyclopentyl}-5-(1,2-thiazol-5-yl)pyridine-3-carboxamide], the IC50 (human MER (528-end)) is reported as < 10 nM, the IC50 (human AXL (473-end)) is reported as < 10 nM and the IC50 (human TYRO3 (455-end)) is reported as 10 to 100 nM.

In the case of CC1(C)CN(C2CCN(CCO)CC2)c2ccc(-c3ccc(CO[C@H]4COC[C@@H]4NC(=O)c4cc(-c5cccnc5F)cnc4N)cc3)cc21 [Example 49, 6-amino-2′-fluoro-N-{(3S,4R)-4-[(4-{1-[1-(2-hydroxyethyl)piperidin-4-yl]-3,3-dimethyl-2,3-dihydro-1H-indol-5-yl}phenyl)methoxy]oxolan-3-yl}[3,3′-bipyridine]-5-carboxamide], the IC50 (human MER (528-end)) is reported as < 10 nM, the IC50 (human AXL (473-end)) is reported as < 10 nM and the IC50 (human TYRO3 (455-end)) is reported as 100 to 1000 nM.

With Cn1cc(-c2cnc(N)c(C(=O)N[C@H]3CCC[C@@H]3OCc3ccc(-c4ccc5[nH]c(C(F)(F)F)cc5c4)cc3)c2)cn1 [Example 53, 2-amino-5-(1-methyl-1H-pyrazol-4-yl)-N-[(1S,2S)-2-({4-[2-(trifluoromethyl)-1H-indol-5-yl]phenyl}methoxy)cyclopentyl]pyridine-3-carboxamide] the IC50 (human MER (528-end)) was 100 to 1000 nM, the IC50 (human AXL (473-end)) was 100 to 1000 nM and the IC50 (human TYRO3 (455-end)) was > 1000 nM.

In the case of Cn1cc(-c2cnc(N)c(C(=O)N[C@H]3C[C@H](O)C[C@@H]3OCc3ccc(-c4ccc5c(c4)C(C)(C)CN5C4CCN(CCO)CC4)cc3)c2)cn1 (relative stereo) [Example 38, rel-2-amino-N-{(1S,2S,4S)-4-hydroxy-2-[(4-{1-[1-(2-hydroxyethyl)piperidin-4-yl]-3,3-dimethyl-2,3-dihydro-1H-indol-5-yl}phenyl)methoxy]cyclopentyl}-5-(1-methyl-1H-pyrazol-4-yl)pyridine-3-carboxamide], the IC50 (human MER (528-end)) is reported as < 10 nM, the IC50 (human AXL (473-end)) is reported as < 10 nM and the IC50 (human TYRO3 (455-end)) is reported as 10 to 100 nM.

For Cn1cc(-c2cnc(N)c(C(=O)N[C@H]3COC[C@@H]3OCc3ccc(-c4ccc5c(c4)CC[C@@H]5N4CCN(CCO)CC4)cc3)c2)cn1 [Example 45, 2-amino-N-{(3S,4R)-4-[(4-{(1S)-1-[4-(2-hydroxyethyl)piperazin-1-yl]-2,3-dihydro-1H-inden-5-yl}phenyl)methoxy]oxolan-3-yl}-5-(1-methyl-1H-pyrazol-4-yl)pyridine-3-carboxamide], the IC50 (human MER (528-end)) was < 10 nM, the IC50 (human AXL (473-end)) was < 10 nM and the IC50 (human TYRO3 (455-end)) was 100 to 1000 nM.

For Nc1ncc(-c2ccc(F)nc2)cc1C(=O)N[C@H]1CCC[C@@H]1OCc1ccc(-c2ccc3c(c2)C[C@H](F)[C@@H]3N2CCN(CCO)CC2)cc1 (relative stereo) [Example 89, 6-amino-6′-fluoro-N-{(1S,2S)-2-[(4-{(1R*,2S*)-2-fluoro-1-[4-(2-hydroxyethyl)piperazin-1-yl]-2,3-dihydro-1H-inden-5-yl}phenyl)methoxy]cyclopentyl}[3,3′-bipyridine]-5-carboxamide], the IC50 (human MER (528-end)) was < 10 nM, the IC50 (human AXL (473-end)) was < 10 nM and the IC50 (human TYRO3 (455-end)) was > 1000 nM.

For CN(C)CCn1ccc2cc(-c3ccc(CO[C@H]4CCC[C@@H]4NC(=O)c4cc(-c5cnn(C)c5)cnc4N)cc3)ccc21 [Example 70, 2-amino-N-{(1S,2S)-2-[(4-{1-[2-(dimethylamino)ethyl]-1H-indol-5-yl}phenyl)methoxy]cyclopentyl}-5-(1-methyl-1H-pyrazol-4-yl)pyridine-3-carboxamide], the IC50 (human MER (528-end)) was < 10 nM, the IC50 (human AXL (473-end)) was < 10 nM and the IC50 (human TYRO3 (455-end)) was 100 to 1000 nM.

Cc1[nH]c2ccc(-c3ccc(CO[C@H]4CCC[C@@H]4NC(=O)c4cc(-c5cnn(C)c5)cnc4N)cc3)cc2c1C [Example 55, 2-amino-N-[(1S,2S)-2-{[4-(2,3-dimethyl-1H-indol-5-yl)phenyl]methoxy}cyclopentyl]-5-(1-methyl-1H-pyrazol-4-yl)pyridine-3-carboxamide] was tested, and the IC50 (human MER (528-end)) was 10 to 100 nM, the IC50 (human AXL (473-end)) was 10 to 100 nM and the IC50 (human TYRO3 (455-end)) was > 1000 nM.
